Calls of active or inactive are those of the source. Rule as the data show it: actives have a measured IC50 and inactives only a lower limit.

In the assay the target is Envelope glycoprotein gp160 (Human immunodeficiency virus 1, UniProt Q6QLK5). Nature of the assay: cell-free HIV fusion peptide-binding blockers – biochemical, uHTS, fluorescence dequenching, […] (AID 1986).
Envelope glycoprotein gp160, sequence (Q6QLK5 whole entry, the tested form may be a part): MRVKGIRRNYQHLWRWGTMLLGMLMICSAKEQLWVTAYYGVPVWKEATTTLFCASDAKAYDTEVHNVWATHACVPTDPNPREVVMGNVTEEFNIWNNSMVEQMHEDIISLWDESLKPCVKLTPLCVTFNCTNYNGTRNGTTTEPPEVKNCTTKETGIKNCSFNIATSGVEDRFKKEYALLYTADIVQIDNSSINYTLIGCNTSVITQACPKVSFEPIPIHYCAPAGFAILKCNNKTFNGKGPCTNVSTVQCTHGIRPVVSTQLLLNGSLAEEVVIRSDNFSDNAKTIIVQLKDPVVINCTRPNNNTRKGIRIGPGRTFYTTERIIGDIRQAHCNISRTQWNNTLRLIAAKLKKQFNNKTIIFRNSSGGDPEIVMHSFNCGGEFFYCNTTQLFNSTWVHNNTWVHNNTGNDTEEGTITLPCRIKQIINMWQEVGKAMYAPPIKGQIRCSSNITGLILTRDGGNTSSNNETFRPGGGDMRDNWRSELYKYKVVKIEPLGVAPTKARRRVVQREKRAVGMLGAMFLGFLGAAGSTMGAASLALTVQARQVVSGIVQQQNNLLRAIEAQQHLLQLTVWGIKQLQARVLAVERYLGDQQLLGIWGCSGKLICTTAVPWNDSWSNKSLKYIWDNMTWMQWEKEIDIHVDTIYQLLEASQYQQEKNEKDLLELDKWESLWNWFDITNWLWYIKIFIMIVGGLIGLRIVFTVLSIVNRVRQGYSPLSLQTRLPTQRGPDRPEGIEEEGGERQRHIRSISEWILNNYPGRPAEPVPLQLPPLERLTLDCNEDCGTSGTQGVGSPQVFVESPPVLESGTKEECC
As a reminder, the IC50 is the concentration at which inhibition is half-maximal. In the case of `CC1=CN2C(=N)/C(=C/c3cc(Cl)c(O)c(Cl)c3)C(=O)N=C2S1`, the IC50 was 26.2 µM (active).
In the case of `O=C(NN1C(=O)/C(=C\c2ccc(O)c([N+](=O)[O-])c2)SC1=S)c1ccccc1Cl`, the IC50 is 24.9 µM (active).
Regarding `COc1cc(/C=C2/C(=O)NN(c3ccc(Cl)cc3)C2=O)cc(Br)c1O`, the IC50 was 15.5 µM (active).

Values taken from ChEMBL document CHEMBL1201862, “PubChem BioAssay data set” (2004).
